From patent US20240115582A1, “USE OF SODIUM TRANS-[TETRACHLORIDOBIS(1H-INDAZOLE)RUTHENATE(III)] FOR TREATING CANCERS” (Bold Therapeutics Inc., priority 2020, published 2024)

Key:
BRAFMT CRC cells [1] = test: Combination of BOLD-100 with ATRi, apoptosis (PARP/cleaved caspase-3 WB, caspase 3/7 activity, PI flow cytometry); assay type: cell-based; conditions: for cell death following BOLD-100 treatment: co-treated with BOLD-100 for 48 h, BRAFMT CRC; for apoptosis when combined with BOLD-100: in particular in BRAFMT CRC cells
Protocol: HT-29 and VACO432 CRC cells were co-treated with BOLD-100 and ATRi AZD6738, M4344 or Berzosertib for 48 h and apoptosis was assessed using WB analyses for PARP and cleaved caspase-3 (A) and caspase 3/7 activity assays (B). C. BRAFMT CRC cells VACO432, COL0205 and LIM2405 were co-treated with BOLD-100 and ATRi AZD6738, M4344 or Berzosertib for 48 h and apoptosis assessed by PI flow cytometry.

BRAFMT, MSS CRC cells = test: CellTitre-Glo and Annexin V/PI sensitivity studies; assay type: cell-based; conditions: isogenic paired and non-isogenic V600E BRAFMT and BRAFWT panel
Protocol: Materials: A panel of isogenic paired and non-isogenic V600E BRAFMT and BRAFWT cells were used. BOLD-100, a ruthenium-based small molecule inhibitor, was obtained from BOLD Therapeutics. A FDA approved compound library was used.
(§1) Methods: Cell Titre Glo, Annexin V/PI high content screening, Flow Cytometry, Western blotting, Caspase 8, 3/7 activity, ROS-Glo^a H2O2, RNAi assays were used. RNA seq and bioinformatic analyses were performed on BOLD-100-treated BRAFMT/WT CRC cells, using the Illumina Novoseq platform and Reactome Pathway Analysis.
As illustrated in FIG. 2. BRAFMT, CMS1 CRC cells show increased sensitivity to treatment with BOLD-100. Upper: A. BRAFMT V600E HT-29 cells were treated with BOLD-100 for the indicated time and GRP78, CHOP and PARP levels determined by Western blotting (WB). B. HT-29 cells were treated with BOLD-100 for the indicated times and HSPA5, ATF4 and DDIT3 mRNA levels quantified using RT-PCR. Raw values were normalised to the expression of housekeeping genes ACTB and GAPDH and analysed using the ΔΔCT method. Lower: A. CRC cells were treated with increasing concentrations of BOLD-100 and cell viability determined using CellTitre-Glo® assay. IC50 was calculated using Prism software package. B. CRC cells were treated with BOLD-100 for 48 h. Apoptosis was assessed using Annexin V/propidium iodide (PI) staining by high-content screening. […]

GRP78, CHOP = test: Western blotting of UPR markers after BOLD-100; assay type: cell-based; conditions: treatment with BOLD-100
Protocol: as §1
As illustrated in FIG. 2. BRAFMT, CMS1 CRC cells show increased sensitivity to treatment with BOLD-100. Upper: A. BRAFMT V600E HT-29 cells were treated with BOLD-100 for the indicated time and GRP78, CHOP and PARP levels determined by Western blotting (WB). B. HT-29 cells were treated with BOLD-100 for the indicated times and HSPA5, ATF4 and DDIT3 mRNA levels quantified using RT-PCR. Raw values were normalised to the expression of housekeeping genes ACTB and GAPDH and analysed using the ΔΔCT method. Lower: A. CRC cells were treated with increasing concentrations of BOLD-100 and cell viability determined using CellTitre-Glo® assay. IC50 was calculated using Prism software package. B. CRC cells were treated with BOLD-100 for 48 h. Apoptosis was assessed using Annexin V/propidium iodide (PI) staining by high-content screening. The graph indicates the percentage of positive stained cells following treatment with 100 μM BOLD-100. Mean of 3 independent experiments is shown.

BRAFMT CRC cells [2] = test: Cell death / caspase 3/7 activity after BOLD-100; assay type: cell-based
Protocol: as §1
A.: Positive hits for primary siRNA screen against 178 target TSG. sRNA was carried out for 24 h, followed by treatment with BOLD-100 for 48 h. Forty-Six targets were identified, resulting in either increased sensitivity or resistance to BOLD-100 (based on robust z-score ±1). B. Positive hits from secondary siRNA screen using 2 additional siRNA sequences against 46 targets. C. CRC cells were pre-incubated with DMSO or 20 μM of the pan-caspase inhibitor, z-VAD-FMK for 3 h followed by treatment with BOLD-100 for 48 h following which, apoptosis was assessed by WB analyses for PARP (top) and caspase-3/7 activity assay (bottom). […] Apoptosis was assessed by WB analysis for PARP (left) and caspase-3/7 activity (right). […] Apoptosis was determined by WB for PARP (left) and caspase-3/7 activity levels (right).
A. BRAFMT CRC cells were treated with BOLD-100 for the indicated time and ATR/KAP1/CKH1/CHK2 expression/activity measured by WB. B. CRC cells were co-treated with BOLD-100 and AZD6738 for 48 h and phosphorylation/expression of ATR/KAP1 and the downstream kinases measured. […]

[3] = system: pATR^T1989, pChk1^S345 and γH2AX; test: Western blotting of ATR/CHK1 DNA damage signalling; assay type: cell-based
Protocol: as §1
(§2) A. BRAFMT CRC cells were treated with BOLD-100 for the indicated time and ATR/KAP1/CKH1/CHK2 expression/activity measured by WB. B. CRC cells were co-treated with BOLD-100 and AZD6738 for 48 h and phosphorylation/expression of ATR/KAP1 and the downstream kinases measured. C. CRC cells were treated with BOLD-100 for the indicated times and generation of ROS measured using a ROS-Glo™ H2O2 assay. D. and E. WB and caspase 3/7 activity in cells pre-treated with NAC for 3 h followed by treatment with BOLD-100 for an additional 24h.

BRAFMT CRC cells [4] = test: ROS-Glo H2O2 assay; assay type: cell-based
Protocol: as §1, §2

Degradation in water = assay type: physicochemical
Protocol: One skilled in the art will recognize that limiting this degradation reaction would be advantageous to obtaining the highest purity product. […] In one aspect of the invention, the sodium trans-[tetrachlorobis(1H-indazole)ruthenate (III)] solution is cooled to 4° C. during the formulation process. In another aspect of the invention, the sodium trans-[tetrachlorobis(1H-indazole)ruthenate (III)] solution is cooled to 2-8° C. during the formulation process. In another aspect of the invention, the sodium trans-[tetrachlorobis(1H-indazole)ruthenate (III)] solution is cooled to 2-15° C. during the formulation process.

BRAFMT CRC cells [5] = test: Combination of BOLD-100 with ATRi, cell viability (CellTitre-Glo, clonogenic survival); assay type: cell-based; conditions: in particular in BRAFMT CRC cells
Protocol: FDA approved drug screen targeting the significant pathways deregulated following BOLD-100 treatment in BRAFMT CRC. BRAFMT HT-29 (A) and VACO432 (B) cells were co-treated with BOLD-100, IC10, IC20, IC30 doses of 60 FDA approved drugs alone or in combination with BOLD-100 for 72 h and cell viability determined using the CellTitre-Glo® assay. Robust z-scores were calculated for combination treatment and normalized to effect of 50 μM BOLD-100. Combinations with r-Z score of <−1 were considered to enhance sensitivity to BOLD-100 treatment. Cell viability for combined BOLD-100/AZD6738 treatment was graphed using GraphPad Prism 8.0. C. Clonogenic survival assays in BRAFMT LIM2405, VACO432 and RKO CRC cells following co-treatment with BOLD-100 and AZD6738 for 14 days. Survival was graphed using GraphPad Prism 8.0.

## CNCc1ccc(-c2cc(-c3nc(-c4ccc(S(=O)(=O)C(C)C)cc4)cnc3N)on2)cc1 [Berzosertib]
BRAFMT CRC cells [1]
  cell death following BOLD-100 treatment: increase cell death

## [Cl][Ru]([Cl])([Cl])[Cl].[Na+].c1ccc2[nH]ncc2c1.c1ccc2[nH]ncc2c1 [BOLD-100, Sodium trans-[tetrachloridobis(1H-indazole)ruthenate(III)]]
BRAFMT, MSS CRC cells
  IC50: 9.25 to 31 µM
GRP78, CHOP
  GRP78 levels: early decreases
  expression levels of the endoplasmic reticulum stress protein CHOP: increases
BRAFMT CRC cells [2]
  type of cell death: caspase-8 dependent cell death
[3]; BRAFMT cells
  pATR^T1989, pChk1^S345 and γH2AX expression levels: rapid and potent increases
BRAFMT CRC cells [4]
  ROS: acute increases in ROS
Degradation in water
  stability in water: can degrade in water to Compound A

## C[C@@H]1COCCN1c1cc(C2([S@](C)(=N)=O)CC2)nc(-c2cc[nH]c3nccc2-3)n1 [AZD6738]
BRAFMT CRC cells [5]
  interaction when combined with BOLD-100: strong synergy
BRAFMT CRC cells [1]
  cell death following BOLD-100 treatment: increase cell death
  apoptosis when combined with BOLD-100: apoptosis

## Nc1nn2cc(F)cnc2c1C(=O)Nc1cncc(F)c1N1CCC(C(=O)N2CCN(C3COC3)CC2)CC1 [M4344]
BRAFMT CRC cells [5]
  interaction when combined with BOLD-100: strong synergy
BRAFMT CRC cells [1]
  cell death following BOLD-100 treatment: increase cell death
  apoptosis when combined with BOLD-100: apoptosis

## CC(=O)N[C@@H](CS)C(=O)O [NAC]
BRAFMT CRC cells [2]; ROS scavenger
  effect on cell death following BOLD-100 treatment: rescued cell death
[3]; ROS scavenger, BRAFMT CRC cells
  effect on BOLD-100 induced CHOP, pATR^T1989, pChk1^S345 and γH2AX levels: abrogated
